From ChEMBL document CHEMBL4261615, “Design, synthesis, biological evaluation and cellular imaging of imidazo[4,5-b]pyridine derivatives as potent and selective TAM inhibitors” (Bioorg Med Chem, 2018)
pIC50: −log10 of the molar value. Activity calls are given as the source filed them. The rule behind the calls is not given here.

Legend:
[1] = target: Hepatocyte growth factor receptor (Homo sapiens) (UniProt P08581); assay: Binding affinity to human MET (D1010 to S1367 residues) expressed in bacterial expression system assessed as fraction of unbound kinase to substrate at 1 uM after 1 hr by KinomeScan assay
Chain of Hepatocyte growth factor receptor (Homo sapiens) (P08581 whole entry, the tested form may be a part): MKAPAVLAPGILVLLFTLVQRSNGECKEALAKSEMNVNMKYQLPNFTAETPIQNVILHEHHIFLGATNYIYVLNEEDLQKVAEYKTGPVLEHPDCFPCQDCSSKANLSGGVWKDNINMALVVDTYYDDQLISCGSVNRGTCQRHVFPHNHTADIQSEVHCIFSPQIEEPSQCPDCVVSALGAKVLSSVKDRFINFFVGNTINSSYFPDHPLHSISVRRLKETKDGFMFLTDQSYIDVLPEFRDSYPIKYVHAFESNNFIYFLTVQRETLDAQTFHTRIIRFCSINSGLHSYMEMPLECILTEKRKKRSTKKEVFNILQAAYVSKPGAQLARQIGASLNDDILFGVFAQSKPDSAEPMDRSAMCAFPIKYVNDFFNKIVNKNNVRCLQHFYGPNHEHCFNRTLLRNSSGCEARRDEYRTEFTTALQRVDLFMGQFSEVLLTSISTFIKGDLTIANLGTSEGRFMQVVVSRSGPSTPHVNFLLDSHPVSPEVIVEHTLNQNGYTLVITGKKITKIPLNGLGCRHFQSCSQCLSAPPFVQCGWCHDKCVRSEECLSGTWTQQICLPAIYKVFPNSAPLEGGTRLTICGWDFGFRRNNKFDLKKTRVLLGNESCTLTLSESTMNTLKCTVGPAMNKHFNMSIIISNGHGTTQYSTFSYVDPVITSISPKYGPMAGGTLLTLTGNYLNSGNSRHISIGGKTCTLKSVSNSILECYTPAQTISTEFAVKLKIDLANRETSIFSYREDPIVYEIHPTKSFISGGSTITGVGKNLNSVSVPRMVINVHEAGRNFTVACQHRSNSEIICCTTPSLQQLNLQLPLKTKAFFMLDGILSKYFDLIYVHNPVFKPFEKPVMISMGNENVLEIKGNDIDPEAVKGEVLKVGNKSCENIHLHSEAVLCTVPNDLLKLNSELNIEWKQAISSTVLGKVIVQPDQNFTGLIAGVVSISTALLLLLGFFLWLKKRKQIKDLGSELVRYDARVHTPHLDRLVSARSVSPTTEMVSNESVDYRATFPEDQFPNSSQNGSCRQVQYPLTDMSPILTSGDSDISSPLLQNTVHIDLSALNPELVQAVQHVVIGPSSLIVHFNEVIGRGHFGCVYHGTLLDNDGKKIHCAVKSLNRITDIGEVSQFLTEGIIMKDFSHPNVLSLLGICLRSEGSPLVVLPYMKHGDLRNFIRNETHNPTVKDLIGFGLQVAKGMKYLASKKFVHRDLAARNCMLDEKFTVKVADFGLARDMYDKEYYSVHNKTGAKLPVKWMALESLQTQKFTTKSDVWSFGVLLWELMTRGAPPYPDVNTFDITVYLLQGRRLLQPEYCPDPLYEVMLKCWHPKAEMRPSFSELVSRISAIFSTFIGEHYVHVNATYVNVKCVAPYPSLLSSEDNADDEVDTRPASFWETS

[2] = target: T1, Tyrosine-protein kinase receptor TYRO3 (Homo sapiens) (UniProt Q06418); assay: Binding affinity to wild-type human partial length TYRO3 (S497 to T814 residues) expressed in bacterial expression system assessed as fraction of unbound kinase to substrate at 10 uM after 1 hr by KinomeScan assay
T1 sequence (whole entry): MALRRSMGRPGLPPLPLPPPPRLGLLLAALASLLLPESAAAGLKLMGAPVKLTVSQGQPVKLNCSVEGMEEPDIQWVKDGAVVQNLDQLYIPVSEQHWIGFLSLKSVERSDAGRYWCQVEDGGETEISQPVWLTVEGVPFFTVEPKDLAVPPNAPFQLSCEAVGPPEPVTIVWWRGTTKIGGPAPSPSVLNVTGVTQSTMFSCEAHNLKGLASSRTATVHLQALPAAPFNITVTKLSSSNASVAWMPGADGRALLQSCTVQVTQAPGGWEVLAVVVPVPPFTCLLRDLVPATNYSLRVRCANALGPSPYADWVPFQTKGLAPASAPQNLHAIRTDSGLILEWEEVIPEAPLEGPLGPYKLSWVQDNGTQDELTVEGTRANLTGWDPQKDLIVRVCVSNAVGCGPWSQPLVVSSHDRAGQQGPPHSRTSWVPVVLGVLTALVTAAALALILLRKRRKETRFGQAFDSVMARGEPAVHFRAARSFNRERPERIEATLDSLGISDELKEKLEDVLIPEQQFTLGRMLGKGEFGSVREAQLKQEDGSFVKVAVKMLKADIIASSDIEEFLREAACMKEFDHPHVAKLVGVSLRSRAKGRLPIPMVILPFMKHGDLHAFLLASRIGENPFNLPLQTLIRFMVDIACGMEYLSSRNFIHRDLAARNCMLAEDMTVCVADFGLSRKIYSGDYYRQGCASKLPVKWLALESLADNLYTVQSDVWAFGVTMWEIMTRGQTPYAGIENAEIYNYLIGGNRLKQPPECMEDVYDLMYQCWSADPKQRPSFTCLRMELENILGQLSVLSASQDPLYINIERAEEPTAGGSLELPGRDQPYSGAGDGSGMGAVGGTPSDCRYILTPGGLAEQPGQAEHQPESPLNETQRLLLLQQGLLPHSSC

[3] = target: Epidermal growth factor receptor (Homo sapiens) (UniProt P00533); assay: Binding affinity to partial length wild type human EGFR (R669 to V1011 residues) expressed in bacterial expression system assessed as fraction of unbound kinase to substrate at 10 uM after 1 hr by KinomeScan assay
Chain of Epidermal growth factor receptor (Homo sapiens) (P00533 whole entry, the tested form may be a part): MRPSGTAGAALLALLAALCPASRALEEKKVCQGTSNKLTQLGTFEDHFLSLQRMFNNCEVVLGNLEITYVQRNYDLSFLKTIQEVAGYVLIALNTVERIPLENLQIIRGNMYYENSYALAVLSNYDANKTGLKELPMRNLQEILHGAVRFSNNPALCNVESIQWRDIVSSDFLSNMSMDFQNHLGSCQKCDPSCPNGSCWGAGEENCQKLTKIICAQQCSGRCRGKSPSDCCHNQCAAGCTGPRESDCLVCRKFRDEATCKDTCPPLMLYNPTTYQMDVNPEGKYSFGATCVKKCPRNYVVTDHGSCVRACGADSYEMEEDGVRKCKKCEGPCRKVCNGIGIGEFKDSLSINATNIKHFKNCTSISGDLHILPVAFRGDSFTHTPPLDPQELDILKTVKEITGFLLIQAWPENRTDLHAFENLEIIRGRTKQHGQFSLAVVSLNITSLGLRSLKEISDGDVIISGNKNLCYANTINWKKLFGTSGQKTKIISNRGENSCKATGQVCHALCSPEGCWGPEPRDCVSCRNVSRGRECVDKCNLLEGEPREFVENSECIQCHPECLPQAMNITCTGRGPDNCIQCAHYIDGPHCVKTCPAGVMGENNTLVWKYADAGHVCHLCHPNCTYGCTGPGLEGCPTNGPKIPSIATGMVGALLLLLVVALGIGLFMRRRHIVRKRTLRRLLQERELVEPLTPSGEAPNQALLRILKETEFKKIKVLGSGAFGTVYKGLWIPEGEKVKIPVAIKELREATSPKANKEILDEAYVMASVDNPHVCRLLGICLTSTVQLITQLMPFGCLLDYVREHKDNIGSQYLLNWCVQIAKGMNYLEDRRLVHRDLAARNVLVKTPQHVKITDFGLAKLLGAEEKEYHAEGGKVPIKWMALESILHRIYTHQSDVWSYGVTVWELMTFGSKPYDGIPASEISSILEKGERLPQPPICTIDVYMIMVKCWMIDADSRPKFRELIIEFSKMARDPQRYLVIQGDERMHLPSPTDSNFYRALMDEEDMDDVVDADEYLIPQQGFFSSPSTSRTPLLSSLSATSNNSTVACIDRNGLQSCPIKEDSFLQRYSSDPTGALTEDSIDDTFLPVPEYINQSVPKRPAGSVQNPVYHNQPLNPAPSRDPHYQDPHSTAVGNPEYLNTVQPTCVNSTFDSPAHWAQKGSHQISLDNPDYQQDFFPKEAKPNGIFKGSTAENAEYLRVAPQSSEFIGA

[4] = target: T2, Tyrosine-protein kinase Mer (Homo sapiens) (UniProt Q12866); assay: Binding affinity to wild-type partial length human MER (R557 to L884 residues) expressed in bacterial expression system assessed as fraction of unbound kinase to substrate at 0.1 uM after 1 hr by KinomeScan assay
T2 sequence (whole entry): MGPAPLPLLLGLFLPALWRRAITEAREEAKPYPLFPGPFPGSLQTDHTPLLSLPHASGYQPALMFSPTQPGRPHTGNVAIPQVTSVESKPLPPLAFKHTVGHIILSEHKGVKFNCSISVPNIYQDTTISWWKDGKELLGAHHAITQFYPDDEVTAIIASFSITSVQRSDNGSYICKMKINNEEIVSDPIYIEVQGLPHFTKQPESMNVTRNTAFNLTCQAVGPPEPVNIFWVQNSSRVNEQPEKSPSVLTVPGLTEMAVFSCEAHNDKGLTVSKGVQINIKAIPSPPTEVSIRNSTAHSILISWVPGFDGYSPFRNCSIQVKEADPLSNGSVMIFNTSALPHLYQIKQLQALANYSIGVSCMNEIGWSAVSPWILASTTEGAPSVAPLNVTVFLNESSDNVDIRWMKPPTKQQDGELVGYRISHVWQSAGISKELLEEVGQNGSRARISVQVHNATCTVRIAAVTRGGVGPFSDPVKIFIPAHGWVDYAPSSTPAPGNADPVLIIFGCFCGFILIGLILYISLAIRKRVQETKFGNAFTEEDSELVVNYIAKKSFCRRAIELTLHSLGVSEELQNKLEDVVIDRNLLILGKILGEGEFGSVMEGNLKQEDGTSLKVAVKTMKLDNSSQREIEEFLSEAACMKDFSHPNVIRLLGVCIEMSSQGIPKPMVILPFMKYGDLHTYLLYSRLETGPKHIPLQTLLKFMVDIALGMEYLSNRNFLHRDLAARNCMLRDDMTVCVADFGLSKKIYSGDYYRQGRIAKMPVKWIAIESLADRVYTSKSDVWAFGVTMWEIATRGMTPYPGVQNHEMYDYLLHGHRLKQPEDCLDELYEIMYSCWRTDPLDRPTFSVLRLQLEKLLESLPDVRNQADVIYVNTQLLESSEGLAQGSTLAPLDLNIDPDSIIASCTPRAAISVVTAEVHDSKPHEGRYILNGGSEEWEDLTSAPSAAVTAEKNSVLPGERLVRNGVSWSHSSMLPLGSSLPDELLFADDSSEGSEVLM

[5] = target: T2, Tyrosine-protein kinase Mer (Homo sapiens); assay: Inhibition of recombinant GST-tagged human Mer (578 to 872 residues) cytoplasmic domain expressed in Baculovirus system using poly (Glu-Ala-Tyr) peptide as substrate after 1.5 hrs by ELISA
[6] = target: Tyrosine-protein kinase ABL1 (Homo sapiens) (UniProt P00519); assay: Binding affinity to human wild type ABL1 (229 to 512 residues) expressed in mammalian expression system assessed as fraction of unbound kinase to substrate at 10 uM after 1 hr by KinomeScan assay
Chain of Tyrosine-protein kinase ABL1 (Homo sapiens) (P00519 whole entry, the tested form may be a part): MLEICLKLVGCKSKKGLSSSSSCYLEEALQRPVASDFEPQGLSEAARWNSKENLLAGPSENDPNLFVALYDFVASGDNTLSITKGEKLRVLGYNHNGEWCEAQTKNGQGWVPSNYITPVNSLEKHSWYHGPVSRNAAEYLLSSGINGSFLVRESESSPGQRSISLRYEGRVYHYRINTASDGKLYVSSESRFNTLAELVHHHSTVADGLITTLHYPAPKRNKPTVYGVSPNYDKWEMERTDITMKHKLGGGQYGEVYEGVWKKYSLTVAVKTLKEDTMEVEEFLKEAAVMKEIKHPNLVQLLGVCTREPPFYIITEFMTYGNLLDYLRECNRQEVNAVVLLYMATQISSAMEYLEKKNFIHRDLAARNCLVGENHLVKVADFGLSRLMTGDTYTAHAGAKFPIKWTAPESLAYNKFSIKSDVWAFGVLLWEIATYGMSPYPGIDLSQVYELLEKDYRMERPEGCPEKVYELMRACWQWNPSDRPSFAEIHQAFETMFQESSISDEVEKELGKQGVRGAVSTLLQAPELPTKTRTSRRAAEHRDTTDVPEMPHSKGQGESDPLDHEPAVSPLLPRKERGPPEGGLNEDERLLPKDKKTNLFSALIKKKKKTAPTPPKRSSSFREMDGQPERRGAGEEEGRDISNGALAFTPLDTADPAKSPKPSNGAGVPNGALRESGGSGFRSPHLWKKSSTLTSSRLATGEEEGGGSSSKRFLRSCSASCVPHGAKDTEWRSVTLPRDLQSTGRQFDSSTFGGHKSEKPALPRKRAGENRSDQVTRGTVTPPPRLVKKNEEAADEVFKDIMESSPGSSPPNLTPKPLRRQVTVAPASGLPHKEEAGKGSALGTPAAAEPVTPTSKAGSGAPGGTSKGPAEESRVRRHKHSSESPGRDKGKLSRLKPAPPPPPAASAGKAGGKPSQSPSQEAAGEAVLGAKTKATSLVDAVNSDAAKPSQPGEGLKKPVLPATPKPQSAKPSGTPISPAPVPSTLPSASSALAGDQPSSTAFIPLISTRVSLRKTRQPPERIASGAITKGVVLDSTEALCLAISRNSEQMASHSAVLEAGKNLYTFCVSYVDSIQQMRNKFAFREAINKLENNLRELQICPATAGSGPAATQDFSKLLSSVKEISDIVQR

[7] = target: T3, Tyrosine-protein kinase receptor TYRO3 (Homo sapiens, UniProt Q06418); assay: Inhibition of recombinant GST-tagged human Tyro3 (451 to 890 residues) cytoplasmic domain expressed in Baculovirus expression system using poly (Glu-Ala-Tyr) peptide as substrate after 5 mins in presence of ADP by fluorescence analysis
T3 sequence (Q06418 whole entry): T1 sequence (whole entry)

[8] = target: T2, Tyrosine-protein kinase Mer (Homo sapiens); assay: Binding affinity to wild-type partial length human MER (R557 to L884 residues) expressed in bacterial expression system assessed as fraction of unbound kinase to substrate at 1 uM after 1 hr by KinomeScan assay
[9] = target: Hepatocyte growth factor receptor (Homo sapiens) (UniProt P08581); assay: Binding affinity to human MET (D1010 to S1367 residues) expressed in bacterial expression system assessed as fraction of unbound kinase to substrate at 0.1 uM after 1 hr by KinomeScan assay
[10] = target: T1, Tyrosine-protein kinase receptor TYRO3 (Homo sapiens); assay: Binding affinity to wild-type human partial length TYRO3 (S497 to T814 residues) expressed in bacterial expression system assessed as fraction of unbound kinase to substrate at 0.1 uM after 1 hr by KinomeScan assay
A549 = assay: Antiproliferative activity against human A549 cells after 72 hrs by CellTiter-Glo assay; format: functional, cell-based

Row | Activity [1] [%] | Activity [2] [%] | Activity [3] [%] | Activity [4] [%] | inhibition [5] | Activity [6] [%] | pIC50 [7] | Activity [8] [%] | Activity [9] [%] | Activity [10] [%] | Compound | Activity (A549)
1 | 82 | 10 | 1 | 4 | inactive | 0 | 6.57 | 60 | 12 | 15 | O=C(Nc1ccc(Oc2c(Br)cnc3[nH]cnc23)c(F)c1)c1cccn(-c2ccc(F)cc2)c1=O | 
2 | 96 | 99.8 | 0 | 87 | Active | 34 | 6.16 | 99.3 | 83 | 17 | O=C(Nc1ccc(Oc2ccnc3[nH]cnc23)c(F)c1)c1cccn(-c2ccc(F)cc2)c1=O | inactive
3 | 94.5 | 5 | 0 | 17 | inactive | 3 | < 4.00 | 78 | 54 | 0 | Cc1cnc2[nH]cnc2c1Oc1ccc(NC(=O)c2cccn(-c3ccc(F)cc3)c2=O)cc1F | inactive
4 | 96.7 | 92.4 | 8 | 92.3 | Active | 17 | 5.33 | 99.6 | 83 | 1 | CC(C)c1nc2c(Oc3ccc(NC(=O)c4cccn(-c5ccc(F)cc5)c4=O)cc3F)ccnc2[nH]1 | inactive
